Data published in US20250198988A1 (priority 2012, published 2025).

Key:
[1] = tested on: blood specimen involving acute myeloid leukemia (AML); details: live cells from blood specimen, apoptosis by OD at 600 nm
Procedure: In the MiCK assay cancer cells from a patient are placed in a suspension of a given concentration of single cells or small cell clusters and allowed to adjust to conditions in multiple wells of a microtiter plate. […] The optical density of each well is then measured periodically, typically every few minutes, for a period of typically a few days. As a cell undergoes apoptosis-related blebbing, its optical density increases in a nearly linear fashion.
The assay may proceed by selecting an anti-cancer drug candidate and selecting at least one known cancer cell type on which to test the drug. The cancer cells may be suspended as a single-cell suspension in culture medium, such as RPMI. As used herein, a “single cell suspension” is a suspension of one or more cells in a liquid in which the cells are separated as individuals or in small clumps of 50 cells or fewer. […]
Suspended cells may be tested by placing samples in wells of a spectrophotometric plate. The cells may be suspended at any concentration such that during the spectrophotometric measurements of OD, the beam of the plate reader normally passes through the layer of cells. […]
The drug candidate and any control drugs or other control samples may be added to the wells after the adjustment period. […] Although many drug candidates may be water-soluble, drug candidates that are not readily soluble in water may also be tested.

[2] = tested on: solid tumor specimen involving lung cancer metastases; test: MiCK assay of apoptosis on patient solid tumor specimen (Appendix A report); type: cell-based; details: live cells from solid tumor specimen, apoptosis by OD at 600 nm
Excerpt: Such candidates may be mixed with any appropriate carrier.
Spectrophotometric data may be converted to kinetic units.
Kinetic units may be determined as follows:
KU=(VmaxDrug Treated−Vmaxcontrol)×60X y/(ODcell−ODblank).
Appendix A is a report based on tests conducted on a solid tumor specimen involving lung cancer metastases.

Structure (SMILES)	maximum kinetic units (KU) [1]	maximum kinetic units (KU) [2]
O=P1(N(CCCl)CCCl)NCCCO1 (centres unmarked) [Cytoxan, cyclophosphamide]	7.4 KU	
CC(=O)O[C@H]1C(=O)[C@@]2(C)[C@H]([C@H](OC(=O)c3ccccc3)[C@]3(O)C[C@H](OC(=O)[C@H](O)[C@@H](NC(=O)c4ccccc4)c4ccccc4)C(C)=C1C3(C)C)[C@]1(OC(C)=O)CO[C@@H]1C[C@@H]2O [paclitaxel]		7.6 KU
